Source: patent publication US20070149446A1, “Tamandarin analogs and fragments thereof and methods of making and using” (The Trustees of the University of Pennsylvania Center for …, priority 2003, published 2007)
Starred links: 1 amine or outer side, 2 acyl side, 3 side chain; linkers in the order of their positions; H or OH if unused. Positions of bridges follow the written chain, without caps; N, C: chain ends. Non-standard residues stand in square brackets, D forms with d. Residues, ends and D or L forms follow the SMILES beside them. Hexanoyl(3S-OH,4R-NH2,5-Me) = CC(C)[C@@H](N[*:1])[C@@H](O)CC(=O)[*:2]; NMeY = CN[C@@H](Cc1ccc(O)cc1)C(=O)O; dNMeL = CN[C@H](CC(C)C)C(=O)O; Hiv = CC(C)[C@H](O)C(=O)O; Lac = C[C@H](O)C(=O)O

Assays:
HELA = test: SRB colorimetric cell growth inhibition assay, HELA
Description: (§1) This form of assay employs 96 well cell culture microplates of […] diameter (Faircloth, 1988; Mosmann, 1983). Most of the cell lines are obtained from American Type Culture Collection (ATCC) derived from different human cancer types.
(§2) Cells are maintained in RPMI 1640 10% FBS, supplemented with 0.1 g/l penicillin and 0.1 g/l streptomycin sulfate and then incubated at 37° C., 5% CO2 and 98% humidity. For the experiments, cells were harvested from subconfluent cultures using trypsin and resuspended in fresh medium before plating.
(§3) Cells are seeded in 96 well microtiter plates, at 5×10^3 cells per well in aliquots of 195 μl medium, and they are allowed to attach to the plate surface by growing in drug free medium for 18 hours. Afterward, samples are added in aliquots of 5 μl in a ranging from 10 to 10-8 μg/ml, dissolved in DMSO/EtOH/PBS (0.5:0.5:99). After 48 hours exposure, the antitumor effect are measured by the SRB methodology: cells are fixed by adding 50 μl of cold 50% (wt/vol) trichloroacetic acid (TCA) and incubated for 60 minutes at 4° C.
(§4) Plates are washed with deionised water and dried. One hundred μl of SRB solution (0.4% wt/vol in 1% acetic acid) is added to each microtiter well and incubated for 10 minutes at room temperature. Unbound SRB is removed by washing with 1% acetic acid. Plates are air dried and bound stain is solubilized with Tris buffer. Optical densities are read on a automated spectrophotometric plate reader at a single wavelength of 490 nm.
(§5) The values for mean+/−SD of data from triplicate wells are calculated.
(§6) Some parameters for cellular responses can be calculated: GI=growth inhibition, TGI=total growth inhibition (cytostatic effect) and LC=cell killing (cytotoxic effect).

A549 = test: SRB colorimetric cell growth inhibition assay, A549
Description: as §1, §2, §3, §4, §5, §6

PANC1 = test: SRB colorimetric cell growth inhibition assay, PANC1
Description: as §1, §2, §3, §4, §5, §6

SK-MEL-28 = test: SRB colorimetric cell growth inhibition assay, SK-MEL-28
Description: as §1, §2, §3, §4, §5, §6

HELA-APL = test: SRB colorimetric cell growth inhibition assay, HELA-APL
Description: as §1, §2, §3, §4, §5, §6

K562 = test: SRB colorimetric cell growth inhibition assay, K562
Description: as §1, §2, §3, §4, §5, §6

IGROV = test: SRB colorimetric cell growth inhibition assay, IGROV
Description: as §1, §2, §3, §4, §5, §6

LN-caP = test: SRB colorimetric cell growth inhibition assay, LN-caP
Description: as §1, §2, §3, §4, §5, §6

HT29 = test: SRB colorimetric cell growth inhibition assay, HT29
Description: as §1, §2, §3, §4, §5, §6

LOVO = test: SRB colorimetric cell growth inhibition assay, LOVO
Description: as §1, §2, §3, §4, §5, §6

DU145 = test: SRB colorimetric cell growth inhibition assay, DU145
Description: as §1, §2, §3, §4, §5, §6

IGROV-ET = test: SRB colorimetric cell growth inhibition assay, IGROV-ET
Description: as §1, §2, §3, §4, §5, §6

SK-BR3 = test: SRB colorimetric cell growth inhibition assay, SK-BR3
Description: as §1, §2, §3, §4, §5, §6

LOVO-DOX = test: SRB colorimetric cell growth inhibition assay, LOVO-DOX
Description: as §1, §2, §3, §4, §5, §6

[1] = Homo sapiens, 48 h, read-out: LC50

Work on `COc1ccc(C[C@H]2C(=O)O[C@H](C)[C@H](NC(=O)[C@@H](CC(C)C)N(C)C(=O)[C@@H]3CCCN3C(=O)[C@H](C)O)C(=O)N[C@H](C(C)C)[C@@H](O)CC(=O)O[C@@H](C(C)C)C(=O)N[C@@H](CC(C)C)C(=O)N[C@@H](C)C(=O)N2C)cc1` [Compound 75, [N-Ala^4]-Tamandarin B] (H-[Lac]P[dNMeL]T[Hexanoyl(3S-OH,4R-NH2,5-Me)][Hiv]LA[NMeY](Me); ester 4-C) yielded a TGI (HELA; HELA cells, total growth inhibition, SRB, 48 hours exposure) of 3.60E−06 Molar, a GI50 (HELA; Homo sapiens, HeLa, 48 h) of 1.18 µM and a CC50 (HELA; Homo sapiens, HeLa, 48 h, read-out: LC50) of no less than 9.84 µM. The TGI (A549; A549 cells, total growth inhibition, SRB, 48 hours exposure) was 9.84E−06 Molar, the GI50 (A549; Homo sapiens, A549, 48 h) was 5.85 µM and the CC50 (A549; Homo sapiens, A549, 48 h, read-out: LC50) was no less than 9.84 µM. For the same molecule, the GI50 (PANC1; Homo sapiens, PANC-1, 48 h) was 3.75 µM, the CC50 (PANC1; Homo sapiens, PANC-1, 48 h, read-out: LC50) was no less than 9.84 µM and the TGI (PANC1; PANC1 cells, total growth inhibition, SRB, 48 hours exposure) was 9.84E−06 Molar. For the same molecule, the GI50 (SK-MEL-28; Homo sapiens, SK-MEL-28, 48 h) was 1.5 µM, the CC50 (SK-MEL-28; Homo sapiens, SK-MEL-28, 48 h, read-out: LC50) was 8 µM and the TGI (SK-MEL-28; SK-MEL-28 cells, total growth inhibition, SRB, 48 hours exposure) was 3.46E−06 Molar. The TGI (HELA-APL; HELA-APL cells, total growth inhibition, SRB, 48 hours exposure) was 9.84E−06 Molar, the GI50 (HELA-APL; Homo sapiens, 48 h) was no less than 9.84 µM and the CC50 (HELA-APL; [1]) was no less than 9.84 µM. The GI50 (K562; Homo sapiens, K562, 48 h) was 5.87 µM, the CC50 (K562; Homo sapiens, K562, 48 h, read-out: LC50) was no less than 9.84 µM and the TGI (K562; K562 cells, total growth inhibition, SRB, 48 hours exposure) was 9.46E−06 Molar. It also gave a GI50 (IGROV; Homo sapiens, IGROV, 48 h) of 1.99 µM, a CC50 (IGROV; Homo sapiens, IGROV, 48 h, read-out: LC50) of no less than 9.84 µM and a TGI (IGROV; IGROV cells, total growth inhibition, SRB, 48 hours exposure) of 5.29E−06 Molar. For the same molecule, the GI50 (LN-caP; Homo sapiens, LNCaP, 48 h) was 0.548 µM, the CC50 (LN-caP; Homo sapiens, LNCaP, 48 h, read-out: LC50) was no less than 9.84 µM and the TGI (LN-caP; LN-caP cells, total growth inhibition, SRB, 48 hours exposure) was 2.97E−06 Molar. It also gave a TGI (HT29; HT29 cells, total growth inhibition, SRB, 48 hours exposure) of 9.84E−06 Molar, a GI50 (HT29; Homo sapiens, HT-29, 48 h) of 4.22 µM and a CC50 (HT29; Homo sapiens, HT-29, 48 h, read-out: LC50) of no less than 9.84 µM. For the same molecule, the GI50 (LOVO; Homo sapiens, LoVo, 48 h) was 3.55 µM, the CC50 (LOVO; Homo sapiens, LoVo, 48 h, read-out: LC50) was no less than 9.84 µM and the TGI (LOVO; LOVO cells, total growth inhibition, SRB, 48 hours exposure) was 9.84E−06 Molar. It also gave a TGI (DU145; DU145 cells, total growth inhibition, SRB, 48 hours exposure) of 4.95E−06 Molar, a GI50 (DU145; Homo sapiens, DU-145, 48 h) of 1.81 µM and a CC50 (DU145; Homo sapiens, DU-145, 48 h, read-out: LC50) of no less than 9.84 µM. The GI50 (IGROV-ET; Homo sapiens, 48 h) was 6.86 µM, the CC50 (IGROV-ET; [1]) was no less than 9.84 µM and the TGI (IGROV-ET; IGROV-ET cells, total growth inhibition, SRB, 48 hours exposure) was 9.84E−06 Molar. It also gave a GI50 (SK-BR3; Homo sapiens, SK-BR-3, 48 h) of 0.789 µM, a CC50 (SK-BR3; Homo sapiens, SK-BR-3, 48 h, read-out: LC50) of no less than 9.84 µM and a TGI (SK-BR3; SK-BR3 cells, total growth inhibition, SRB, 48 hours exposure) of 3.39E−06 Molar. It also gave a GI50 (LOVO-DOX; Homo sapiens, 48 h) of no less than 9.84 µM, a CC50 (LOVO-DOX; [1]) of no less than 9.84 µM and a TGI (LOVO-DOX; LOVO-DOX cells, total growth inhibition, SRB, 48 hours exposure) of 9.84E−06 Molar.
